Converted amounts (≈) assume the structure as drawn.
Assays:
[1] = biological target: E. Coli. IleRS (isoleucyl-tRNA synthetase) (Escherichia coli, UniProt P00956); test: Inhibition of isoleucyl-tRNA synthetase (aminoacylation of tRNA with [3H]isoleucine); type: biochemical; details: E. coli enzyme; irreversible inhibitors: values are 50% of the active enzyme concentration; read-out: IC50 E.Coli. IleRS
Method: The extent of aminoacylation of tRNA with isoleucine catalyzed by isoleucyl-tRNA synthetase enzyme was measured by monitoring the incorporation of [3H] isoleucine into trichloroacetic acid-precipitable tRNA in the presence of a compound of Formula I, as compared with activity in the absence of inhibitor. The isoleucyl-tRNA synthetase enzymes are well known in the prior art and can be obtained and purified by known methods (for example see: D. Kern et at., Biochimie, 61, 1257-1272 (1979) and J. Gilbart et al., Antimicrobial Agents and Chemotherapy, 37 (1), 32-38 (1993)).
Isoleucyl-tRNA synthetase enzyme (0.08-2.0 nM, preferably, 0.4 nM) was first pre-incubated at 25° C. with 0.05 mg/ml bovine serum albumin, 10 mM DTT, 2.5% dimethyl sulfoxide, with or without a compound of Formula I, for 20 minutes. At this point a substrate solution (a solution containing the following: ATP, [^3 H]isoleucine, tRNA, HEPES, magnesium chloride, and potassium chloride) was added to give a final concentration of 0.0286 mg/ml bovine serum albumin, 5.7 mM DTT, 4 mM ATP, 5-20 μM [^3 H] isoleucine (1-15 Ci/mmol), 90 μM crude tRNA or 2 μM isoleucine specific tRNA, 1.4% dimethyl sulfoxide, 30 mM HEPES (pH 7.5), 10 mM magnesium chloride, and 50 mM potassium chloride and incubated at 25° C. Aliquots were removed at selected times (e.g. 5, 10, 20 minutes) and applied to 3MM filter paper discs (Whatman) and then dropped into 5% (wt/vol) trichloroacetic acid for >5 minutes. Filters were washed for three 10-minute periods in 5% trichloroacetic acid, rinsed in 95% ethanol and diethyl ether, and radioactivity was measured with Betafluor™ (National Diagnostics) by liquid scintillation counting.
Inhibitor activity is reported in Table II as an IC50 value (inhibitor concentration causing 50% inhibition of enzyme activity) per a known amount of active enzyme. In the case of irreversible inhibitors (1:1 stoichiometry) these values are 50% of the active enzyme concentration. The IC50 (in nM, E. coli) values of representative compounds of the present invention are listed in the second column of Table II.

C. albicans ATCC 10231 = test: Whole cell antimicrobial screen, MIC; type: cell-based; details: Candida albicans, ATCC10231
Method: (§1) Compounds were tested for antimicrobial activity against a panel of organisms according to standard procedures described by the National Committee for Clinical Laboratory Standards (NCCLS document M7-A3, Vol. 13, No. 25, 1993/NCCLS document M27-P, Vol. 12, No. 25, 1992). Compounds were dissolved in 100% dimethyl sulfoxide and were diluted to the final reaction concentration (0.1 μg/mL-500 μg/mL) in microbial growth media. In al cases the final concentration of dimethyl sulfoxide incubated with cells is less than or equal to 1%. For minimum inhibitory concentration (MIC) calculations, 2-fold dilutions of compounds were added to wells of a microtiter plate containing 5×10^4 bacteria or fungal cells in a final volume of 100 lambda of an appropriate media (Mueller-Hinton Broth; Haemophilus Test Media; Mueller-Hinton Broth+5% Sheep Blood; or […]). Plates were incubated overnight at an appropriate temperature (30° C.-37° C.) and optical densities (measure of cell growth) were measured using a commercial plate reader. The MIC value is defined as the lowest compound concentration inhibiting growth of the test organism.

E. faecalis ATCC 33011 = test: Whole cell antimicrobial screen, MIC; type: cell-based; details: Enterococcus faecalis, ATCC33011
Method: as §1

E. faecium ATCC 6569 = test: Whole cell antimicrobial screen, MIC; type: cell-based; details: Enterococcus faecium, ATCC6569
Method: as §1

S. aureus ATCC 14154 = test: Whole cell antimicrobial screen, MIC; type: cell-based; details: Staphylococcus aureus, ATCC14154
Method: as §1

S. aureus ATCC 6538P = test: Whole cell antimicrobial screen, MIC; type: cell-based; details: Staphylococcus aureus, ATCC6538P
Method: as §1

[2] = test system: S. epidermidis ATCC 33501; test: Whole cell antimicrobial screen, MIC; type: cell-based; details: Staphylococcus epidermidis, ATCC33501
Method: as §1

S. pneumonia ATCC 49619 = test: Whole cell antimicrobial screen, MIC; type: cell-based
Method: as §1

S. pyogenes ATCC 8668 = test: Whole cell antimicrobial screen, MIC; type: cell-based; details: Streptococcus pyogenes, ATCC8668
Method: as §1

[3] = test system: S. saprophyticus ATCC 35552; test: Whole cell antimicrobial screen, MIC; type: cell-based; details: Staphylococcus saprophyticus, ATCC35552
Method: as §1

[4] = test system: isoleucyl-tRNA synthetase; details: Gram positive bacterial pathogens such as Staphylococcus aureus; cited from earlier work
H. influenza ATCC 49247 = test: Whole cell antimicrobial screen, MIC; type: cell-based
Method: as §1

B. subtilis ATCC 6633 = test: Whole cell antimicrobial screen, MIC; type: cell-based; details: Bacillus subtilis, ATCC6633
Method: as §1

K. pneumonia ATCC 4352 = test: Whole cell antimicrobial screen, MIC; type: cell-based; details: Klebsiella pneumoniae, ATCC4352
Method: as §1

[5] = test system: M. catarrhalis ATCC 25240; test: Whole cell antimicrobial screen, MIC; type: cell-based; details: Moraxella catarrhalis, ATCC25240
Method: as §1

E. Coli. IleRS (isoleucyl-tRNA synthetase), sequence (P00956 whole entry): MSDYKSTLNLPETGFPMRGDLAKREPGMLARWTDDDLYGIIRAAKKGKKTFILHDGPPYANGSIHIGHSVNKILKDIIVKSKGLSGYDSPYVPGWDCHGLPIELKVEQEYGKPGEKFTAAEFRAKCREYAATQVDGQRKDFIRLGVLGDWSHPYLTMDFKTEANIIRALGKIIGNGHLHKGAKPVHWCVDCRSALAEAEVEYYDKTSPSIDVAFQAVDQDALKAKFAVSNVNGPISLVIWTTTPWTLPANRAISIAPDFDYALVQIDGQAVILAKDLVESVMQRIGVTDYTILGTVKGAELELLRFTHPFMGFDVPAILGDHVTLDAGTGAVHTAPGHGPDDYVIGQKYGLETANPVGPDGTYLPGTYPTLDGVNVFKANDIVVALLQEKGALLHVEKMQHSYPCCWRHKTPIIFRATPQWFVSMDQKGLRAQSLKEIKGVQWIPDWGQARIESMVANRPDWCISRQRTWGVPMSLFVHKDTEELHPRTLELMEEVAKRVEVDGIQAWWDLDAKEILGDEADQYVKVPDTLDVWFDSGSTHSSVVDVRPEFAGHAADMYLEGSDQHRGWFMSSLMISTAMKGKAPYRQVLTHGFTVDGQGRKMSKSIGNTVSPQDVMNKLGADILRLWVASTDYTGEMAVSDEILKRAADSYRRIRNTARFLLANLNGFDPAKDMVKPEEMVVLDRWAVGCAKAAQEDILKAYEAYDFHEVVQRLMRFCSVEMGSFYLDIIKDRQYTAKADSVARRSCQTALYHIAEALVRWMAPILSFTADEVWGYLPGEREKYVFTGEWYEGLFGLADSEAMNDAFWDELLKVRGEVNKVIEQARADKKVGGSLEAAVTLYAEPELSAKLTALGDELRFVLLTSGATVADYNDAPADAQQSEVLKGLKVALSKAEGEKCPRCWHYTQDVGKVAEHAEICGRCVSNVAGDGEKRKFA

| SMILES | IC50 [1] [nM] | MIC (C. albicans ATCC 10231) [µg/mL] | MIC (E. faecalis ATCC 33011) [µg/mL] | MIC (E. faecium ATCC 6569) [µg/mL] | MIC (S. aureus ATCC 14154) [µg/mL] | MIC (S. aureus ATCC 6538P) [µg/mL] | MIC [2] [µg/mL] | MIC (S. pneumonia ATCC 49619) [µg/mL] | MIC (S. pyogenes ATCC 8668) [µg/mL] | MIC [3] [µg/mL] | inhibition of isoleucyl adenylate formation [4] | MIC (H. influenza ATCC 49247) [µg/mL] | MIC (B. subtilis ATCC 6633) [µg/mL] | MIC (K. pneumonia ATCC 4352) [µg/mL] | MIC [5] [µg/mL] |
| --- | --- | --- | --- | --- | --- | --- | --- | --- | --- | --- | --- | --- | --- | --- | --- |
| CC[C@H](C)[C@H](N)C(=O)NS(=O)(=O)OC[C@H]1O[C@@H](CCn2nnc(-c3ccc(C#Cc4ccc([N+](=O)[O-])o4)cc3)n2)[C@H](O)[C@@H]1O [II, [S-(R*,R*)]-3,6-anhydro-1,2-dideoxy-1-[5-[4-[(5-nitro-2-furyl)ethynyl]phenyl]-2H-tetrazol-2-yl]-D-allo-heptitol 7-(2-amino-3-methyl-1-oxopentyl)sulfamate] | 1 | 100 (≈ 158 µM) | 256 (≈ 404 µM) | 64 (≈ 101 µM) | 8 (≈ 12.6 µM) | 4 (≈ 6.31 µM) | 1 (≈ 1.58 µM) | 16 (≈ 25.3 µM) | 16 (≈ 25.3 µM) | 8 (≈ 12.6 µM) |  |  |  |  |  |
| CC(=CC(=O)OCCCCCCCCC(=O)O)CC1OCC(CC2OC2C(C)C(C)O)C(O)C1O (stereo not drawn) [Pseudomonic acid A] |  |  |  |  |  |  |  |  |  |  | inhibits isoleucyl adenylate formation |  |  |  |  |
| CC[C@H](C)[C@H](N)C(=O)NS(=O)(=O)OC[C@H]1O[C@@H](CCn2nnc(-c3ccc(Oc4ccc(C(=O)OCc5ccccc5)cc4)cc3)n2)[C@H](O)[C@@H]1O [XI] | 109 | > 500 | > 500 | 25 (≈ 34.5 µM) | 25 (≈ 34.5 µM) | 10 (≈ 13.8 µM) | 5 (≈ 6.9 µM) | 50 (≈ 69 µM) | 5 (≈ 6.9 µM) | 10 (≈ 13.8 µM) |  | 25 (≈ 34.5 µM) |  |  |  |
| CC[C@H](C)[C@H](N)C(=O)NS(=O)(=O)OC[C@H]1O[C@@H](CCn2nnc(-c3ccc(-c4ccccc4)c(C)c3)n2)[C@H](O)[C@@H]1O [XX] | 0.6 | > 500 | 500 (≈ 849 µM) | 100 (≈ 170 µM) | 50 (≈ 84.9 µM) | 50 (≈ 84.9 µM) | 25 (≈ 42.5 µM) |  |  | 25 (≈ 42.5 µM) |  | > 500 | 50 (≈ 84.9 µM) | 50 (≈ 84.9 µM) | 25 (≈ 42.5 µM) |
| CC[C@H](C)[C@H](N)C(=O)NS(=O)(=O)OC[C@H]1O[C@@H](CCn2nnc(-c3ccc(-c4ccccc4C)cc3)n2)[C@H](O)[C@@H]1O [XIX] | 5.3 | 500 (≈ 849 µM) | 300 (≈ 510 µM) | 200 (≈ 340 µM) | 50 (≈ 84.9 µM) | 50 (≈ 84.9 µM) | 5 (≈ 8.49 µM) |  |  | 25 (≈ 42.5 µM) |  |  | 50 (≈ 84.9 µM) | 100 (≈ 170 µM) | 50 (≈ 84.9 µM) |
| CC[C@H](C)[C@H](N)C(=O)NS(=O)(=O)OC[C@H]1O[C@@H](CCn2nnc(-c3ccc(C#Cc4ccccc4)cc3)n2)[C@H](O)[C@@H]1O [IV] | 4.5 | > 200 | > 500 | > 500 | 100 (≈ 167 µM) | 10 (≈ 16.7 µM) | 2 (≈ 3.34 µM) |  |  | 10 (≈ 16.7 µM) |  |  | 25 (≈ 41.8 µM) | 50 (≈ 83.5 µM) | 5 (≈ 8.35 µM) |
| CC[C@H](C)[C@H](N)C(=O)NS(=O)(=O)OC[C@H]1O[C@@H](CCn2nnc(-c3ccc(-c4ccccc4C)c(C)c3)n2)[C@H](O)[C@@H]1O [XXII] | 11 | > 500 | 200 (≈ 332 µM) | 100 (≈ 166 µM) | 25 (≈ 41.5 µM) | 25 (≈ 41.5 µM) | 5 (≈ 8.3 µM) | 25 (≈ 41.5 µM) | 10 (≈ 16.6 µM) | 10 (≈ 16.6 µM) |  |  | 25 (≈ 41.5 µM) | 100 (≈ 166 µM) | 50 (≈ 83 µM) |

From patent publication US5726195A, “Aminoacyl adenylate mimics as novel antimicrobial and antiparasitic agents” (Cubist Pharmaceuticals, Inc., priority 1996, dated 1998)
